The target of experiment [1] is T1, human mGlu5a receptor (Homo sapiens (Human), UniProt P41594). In words: MPEP binding assay. Conditions: [3H]MPEP 2 nM, 1 h at 4° C., EBNA cell membranes. The procedure: For binding experiments, cDNA encoding human mGlu 5a receptor was transiently transfected into EBNA cells using a procedure described by Schlaeger and Christensen [Cytotechnology 15:1-13 (1998)]. Cell membrane homogenates were stored at −80° C. until the day of assay where upon they were thawed and resuspended and polytronised in 15 mM Tris-HCl, 120 mM NaCl, 100 mM KCl, 25 mM CaCl2, 25 mM MgCl2 binding buffer at pH 7.4 to a final assay concentration of 20 μg protein/well.
Saturation isotherms were determined by addition of twelve [^3H]MPEP concentrations (0.04-100 nM) to these membranes (in a total volume of 200 μl) for 1 h at 4° C. Competition experiments were performed with a fixed concentration of [^3H]MPEP (2 nM) and IC50 values of test compounds evaluated using 11 concentrations (0.3-10,000 nM). Incubations were performed for 1 h at 4° C.
At the end of the incubation, membranes were filtered onto unifilter (96-well white microplate with bonded GF/C filter preincubated 1 h in 0.1% PEI in wash buffer, Packard BioScience, Meriden, Conn.) with a Filtermate 96 harvester (Packard BioScience) and washed 3 times with cold 50 mM Tris-HCl, pH 7.4 buffer. Nonspecific binding was measured in the presence of 10 μM MPEP. The radioactivity on the filter was counted (3 min) on a Packard Top-count microplate scintillation counter with quenching correction after addition of 45 μl of microscint 40 (Canberra Packard S. A., Zürich, Switzerland) and shaking for 20 min.

Experiment [2] addresses T1, human mGlu5a receptor. In words: Intracellular Ca2+ mobilization assay (mGlu5 PAM assay). It is filed as cell-based. The settings on record: for Activity profile: PAM = positive allosteric modulator, NAM = negative allosteric modulator; for mGlu5 PAM EC50 [nM] / EC50 (nM) mGlu5 PAM assay: HEK-293 cells with human mGlu5a, L-glutamate at EC20; for Efficacy [%]: maximal response in % of maximal stimulatory effect of saturating L-glutamate. Here is the method:
A monoclonal HEK-293 cell line stably transfected with a cDNA encoding for the human mGlu5a receptor was generated; for the work with mGlu5 Positive Allosteric Modulators (PAMs), a cell line with low receptor expression levels and low constitutive receptor activity was selected to allow the differentiation of agonistic versus PAM activity. Cells were cultured according to standard protocols (Freshney, 2000) in Dulbecco's Modified Eagle Medium with high glucose supplemented with 1 mM glutamine, 10% (vol/vol) heat-inactivated bovine calf serum, Penicillin/Streptomycin, 50 μg/ml hygromycin and 15 μg/ml blasticidin (all cell culture reagents and antibiotics from Invitrogen, Basel, Switzerland).
About 24 hrs before an experiment, 5×10^4 cells/well were seeded in poly-D-lysine coated, black/clear-bottomed 96-well plates. The cells were loaded with 2.5 μM Fluo-4AM in loading buffer (1×HBSS, 20 mM HEPES) for 1 hr at 37° C. and washed five times with loading buffer. The cells were transferred into a Functional Drug Screening System 7000 (Hamamatsu, Paris, France), and 11 half logarithmic serial dilutions of test compound at 37° C. were added and the cells were incubated for 10-30 min. with on-line recording of fluorescence. Following this pre-incubation step, the agonist L-glutamate was added to the cells at a concentration corresponding to EC20 (typically around 80 μM) with on-line recording of fluorescence; in order to account for day-to-day variations in the responsiveness of cells, the EC20 of glutamate was determined immediately ahead of each experiment by recording of a full dose-response curve of glutamate.
Responses were measured as peak increase in fluorescence minus basal (i.e. fluorescence without addition of L-glutamate), normalized to the maximal stimulatory effect obtained with saturating concentrations of L-glutamate. Graphs were plotted with the % maximal stimulatory using XLfit, a curve fitting program that iteratively plots the data using Levenburg Marquardt algorithm. The single site competition analysis equation used was y=A+((B−A)/(1+((x/C)D))), where y is the % maximal stimulatory effect, A is the minimum y, B is the maximum y, C is the EC50, x is the log 10 of the concentration of the competing compound and D is the slope of the curve (the Hill Coefficient). From these curves the EC50 (concentration at which half maximal stimulation was achieved), the Hill coefficient as well as the maximal response in % of the maximal stimulatory effect obtained with saturating concentrations of L-glutamate were calculated.
A depression of the signal observed after addition of the EC20 concentration of L-glutamate was indicative of an inhibitory activity of the test compound.

For orientation: Ki means the equilibrium dissociation constant of an inhibitor or competing ligand from its target.

T1 sequence (P41594 other isoform, or with tags, fused parts or gaps): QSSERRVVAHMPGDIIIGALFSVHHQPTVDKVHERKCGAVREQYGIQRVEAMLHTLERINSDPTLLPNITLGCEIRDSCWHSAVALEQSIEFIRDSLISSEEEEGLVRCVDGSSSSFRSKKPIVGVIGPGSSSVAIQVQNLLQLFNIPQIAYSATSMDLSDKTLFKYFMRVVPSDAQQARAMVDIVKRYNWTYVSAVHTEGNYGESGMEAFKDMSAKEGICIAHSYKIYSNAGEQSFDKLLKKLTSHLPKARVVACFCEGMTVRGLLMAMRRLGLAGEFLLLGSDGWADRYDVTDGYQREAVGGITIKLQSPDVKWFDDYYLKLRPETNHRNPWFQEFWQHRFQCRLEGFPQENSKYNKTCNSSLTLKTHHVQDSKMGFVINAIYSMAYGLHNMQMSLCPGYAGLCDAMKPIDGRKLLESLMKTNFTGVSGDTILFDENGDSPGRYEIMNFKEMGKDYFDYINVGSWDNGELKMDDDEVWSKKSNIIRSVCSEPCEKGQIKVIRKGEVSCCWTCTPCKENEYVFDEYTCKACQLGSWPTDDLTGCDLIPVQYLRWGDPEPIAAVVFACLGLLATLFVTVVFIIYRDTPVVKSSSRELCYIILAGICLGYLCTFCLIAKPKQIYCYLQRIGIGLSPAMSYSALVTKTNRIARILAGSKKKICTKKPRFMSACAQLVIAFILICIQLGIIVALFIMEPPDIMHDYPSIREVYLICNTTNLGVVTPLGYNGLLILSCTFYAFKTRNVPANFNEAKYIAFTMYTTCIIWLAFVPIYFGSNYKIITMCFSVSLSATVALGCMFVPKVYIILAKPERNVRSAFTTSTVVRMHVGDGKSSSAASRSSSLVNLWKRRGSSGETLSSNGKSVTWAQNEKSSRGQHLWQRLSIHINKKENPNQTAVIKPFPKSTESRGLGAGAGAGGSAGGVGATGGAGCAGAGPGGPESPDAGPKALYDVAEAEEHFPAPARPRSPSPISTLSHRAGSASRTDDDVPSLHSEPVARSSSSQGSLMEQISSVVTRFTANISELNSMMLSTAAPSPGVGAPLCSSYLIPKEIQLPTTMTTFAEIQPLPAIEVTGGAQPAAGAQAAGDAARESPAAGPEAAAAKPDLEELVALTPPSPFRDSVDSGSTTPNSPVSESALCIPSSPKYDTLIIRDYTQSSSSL

Take `CC1(C)CN(C(=O)c2ccc(C#Cc3cccc(F)c3)cn2)CCO1` [Ref. 1 Ex. 35, reference compound]: the inhibition constant (Ki) on human mGlu5a receptor [1] amounted to 201 nM. Besides, at human mGlu5a receptor [2], the Activity profile entry is “PAM”.
Turning to `CC1(C)COCCN1C(=O)c1ncc(C#Cc2cccc(Cl)c2)cn1` [drawing 8], the “mGlu5 PAM EC50 [nM]” value at human mGlu5a receptor [2] was “inactive”.
`CC1(C)COCCN1C(=O)c1ccc(C#Cc2cccc(F)c2)cn1` [drawing 5]: the “mGlu5 PAM EC50 [nM]” value at human mGlu5a receptor [2] is “inactive”.
For the compound `CC1(C)COCCN1C(=O)c1ncc(C#Cc2cccc(Cl)c2)cn1` [Example 4, (3,3-Dimethyl-morpholin-4-yl)-[5-(3-chloro-phenylethynyl)-pyrimidin-2-yl]-methanone], the Ki on human mGlu5a receptor [1] was 67 nM. Further, on human mGlu5a receptor [2], the “EC50 (nM) mGlu5 PAM assay” value was “inactive” and the Activity profile entry is “NAM”.
Consider `CC1(C)CCCN(C(=O)c2ncc(C#Cc3ccccc3)cn2)C1` [drawing 4], for which the “Efficacy [%]” value on human mGlu5a receptor [2] came to 59%.
Regarding `O=C(c1ccc(C#Cc2cccc(Cl)c2)cn1)N1CCOCC1` [drawing 6], the “mGlu5 PAM EC50 [nM]” value at human mGlu5a receptor [2] was “inactive”.
In the case of `CC1(C)COCCN1C(=O)c1ccc(C#Cc2cccc(F)c2)cn1` [Example 1, (3,3-Dimethyl-morpholin-4-yl)-[5-(3-fluoro-phenylethynyl)-pyridin-2-yl]-methanone], at human mGlu5a receptor [1], the inhibition constant Ki was 72 nM. In addition, on human mGlu5a receptor [2], the “EC50 (nM) mGlu5 PAM assay” value is “inactive” and the Activity profile entry is on record as “NAM”.
Consider `CC1(C)COCCN1C(=O)c1ccc(C#Cc2cccc(Cl)c2)cn1` [drawing 7], for which the “mGlu5 PAM EC50 [nM]” value at human mGlu5a receptor [2] is “inactive”.
Take `CC1(C)CCCN(C(=O)c2ncc(C#Cc3ccccc3)cn2)C1` [Ref. 1 Ex. 46, reference compound]: the inhibition constant (Ki) on human mGlu5a receptor [1] amounted to 315 nM. Also, the Activity profile result at human mGlu5a receptor [2] is listed as “PAM”.
For the compound `CC1(C)CN(C(=O)c2ccc(C#Cc3cccc(F)c3)cn2)CCO1` [drawing 3], at human mGlu5a receptor [2], the “Efficacy [%]” value is 57%.
`CC1(C)COCCN1C(=O)c1ccc(C#Cc2cccc(Cl)c2)cn1` [Example 3, (3,3-Dimethyl-morpholin-4-yl)-[5-(3-chloro-phenylethynyl)-pyridin-2-yl]-methanone]: on human mGlu5a receptor [1], the Ki was 23 nM. Moreover, on human mGlu5a receptor [2], the “EC50 (nM) mGlu5 PAM assay” value was “inactive” and the Activity profile result is listed as “NAM”.
In the case of `O=C(c1ccc(C#Cc2cccc(Cl)c2)cn1)N1CCOCC1` [Example 2, [5-(3-Chloro-phenylethynyl)-pyridin-2-yl-morpholin-4-yl]-methanone], the “EC50 (nM) mGlu5 PAM assay” value at human mGlu5a receptor [2] was “inactive”.

For the origin of these results see patent US9227959B2, “Ethynyl derivatives” (Hoffmann-La Roche Inc., priority 2012, dated 2016).
